Tested on: RS411 cells
Assay: Cell Viability CTG Assay (CellTiter Glo) in RS411 cells
Type: cell-based
Conditions: Homo sapiens, RS4-11, 24 h, duration 1 day
Outline: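 RS411 cells at 1000 cells/well were exposed to compound (top final 10 μM, 3-fold, 11 doses; 0.2% DMSO) at 37 °C, 5% CO2 for 1-4 days. Viability was read by CellTiter Glo luminescence after 10 min at RT. IC50 is reported as letter-code bins.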

| Compound | IC50 |
| --- | --- |
| Cn1c(=O)n(C2CCC(=O)NC2=O)c2ccc(N3CCN(C[C@H]4CC[C@H](NC(=O)[C@@H]5NC6(CCC(C)(C)CC6)[C@@]6(C(=O)Nc7cc(Cl)ccc76)[C@H]5c5ccnc(Cl)c5F)CC4)CC3)cc21 (stereo partly drawn) [I-204] | < 50 nM |
| Cn1c(=O)n(C2CCC(=O)NC2=O)c2ccc(CN3CCN(C[C@H]4CC[C@H](NC(=O)[C@@H]5NC6(CCC(C)(C)CC6)[C@@]6(C(=O)Nc7cc(Cl)ccc76)[C@H]5c5ccnc(Cl)c5F)CC4)CC3)cc21 (stereo partly drawn) [I-205] | < 50 nM |
| COc1cc2c(cc1OC(C)C)C(c1ccc(Cl)cc1)N(c1ccc(N(C)C[C@H]3CC[C@H](N(C)CCCC#Cc4c(OC)ccc5c4n(C)c(=O)n5C4CCC(=O)NC4=O)CC3)cc1)C(=O)C2 (stereo partly drawn) [I-206] | < 50 nM |
| Cn1c(=O)n(C2CCC(=O)NC2=O)c2ccc(N3CCN(C[C@H]4CC[C@H](NC(=O)[C@@H]5NC6(CCCCC6)[C@@]6(C(=O)Nc7cc(Cl)ccc76)[C@H]5c5cccc(Cl)c5F)CC4)CC3)cc21 (stereo partly drawn) [I-207] | < 50 nM |
| COc1cc2c(cc1OC(C)C)C(c1ccc(Cl)cc1)N(c1ccc(N(C)CCCCCCCc3ccc4c(c3)n(C)c(=O)n4C3CCC(=O)NC3=O)cc1)C(=O)C2 (stereo not drawn) [I-208] | > 1000 nM |
| COc1cc2c(cc1OC(C)C)C(c1ccc(Cl)cc1)N(c1ccc(N(C)C(=O)C3CCN(CCCCCCc4ccc5c(c4)n(C)c(=O)n5C4CCC(=O)NC4=O)CC3)cc1)C(=O)C2 (stereo not drawn) [I-209] | > 1000 nM |
| CN(CCCCCc1ccc2c(c1)n(C)c(=O)n2C1CCC(=O)NC1=O)Cc1ccc(NC(=O)[C@@H]2NC3(CCCCC3)[C@@]3(C(=O)Nc4cc(Cl)ccc43)[C@H]2c2cccc(Cl)c2F)c2c1OCCO2 (stereo partly drawn) [I-210] | < 50 nM |
| COc1cc2c(cc1OC(C)C)[C@H](c1ccc(Cl)cc1)N(c1ccc(N(C)C[C@H]3CC[C@H](N4CCN(CCc5ccc6c(c5)n(C)c(=O)n6C5CCC(=O)NC5=O)CC4)CC3)cc1)C(=O)C2 (stereo partly drawn) [I-211] | < 50 nM |
| COc1cc2c(cc1OC(C)C)C(c1ccc(Cl)cc1)N(c1ccc(N(C)C[C@H]3CC[C@H](N(C)CCCCc4ccn5c(N6CCC(=O)NC6=O)cnc5c4)CC3)cc1)C(=O)C2 (stereo partly drawn) [I-212] | > 1000 nM |
| CNC(=O)c1ccc(N2C(=O)[C@H]3[C@H](c4cccc(Cl)c4F)[C@@](C#N)(c4ccc(Cl)cc4F)[C@H](CC(C)(C)C)N3C2CCCCCCCC#Cc2ccc3c(c2)n(C)c(=O)n3C2CCC(=O)NC2=O)c(OC)c1 (stereo partly drawn) [I-213, 4-[(5S,6R,7S,7aR)-7-(3-chloro-2-fluoro-phenyl)-6-(4-chloro-2-fluoro-phenyl)-6-cyano-5-(2,2-dimethylpropyl)-3-[9-[1-(2,6-dioxo-3-piperidyl)-3-methyl-2-oxo-benzimidazol-5-yl]non-8-ynyl]-1-oxo-3,5,7,7a-tetrahydropyrrolo[1,2-c]imidazol-2-yl]-3-methoxy-N-methyl-benzamide] | > 1000 nM |
| Cn1c(=O)n(C2CCC(=O)NC2=O)c2ccc(C#CCCCCCCCCN3[C@@H](C(=O)Nc4ccc(C(=O)O)cc4)[C@H](c4cccc(Cl)c4F)[C@]4(C(=O)Nc5cc(Cl)ccc54)C34CCCCC4)cc21 (stereo partly drawn) [I-214, 4-((3′R,4'S,5′R)-6″-chloro-4′-(3-chloro-2-fluorophenyl)-1′-(10-(1-(2,6-dioxopiperidin-3-yl)-3-methyl-2-oxo-2,3-dihydro-1H-benzo[d]imidazol-5-yl)dec-9-yn-1-yl)-2″-oxodispiro[cyclohexane-1,2′-pyrrolidine-3′,3″-indoline]-5′-carboxamido)benzoic acid] | 50 to 100 nM |
| Cn1c(=O)n(C2CCC(=O)NC2=O)c2ccc(C#CCCCCCN3CCC(NC(=O)[C@@H]4NC5(CCCCC5)[C@@]5(C(=O)Nc6cc(Cl)ccc65)[C@H]4c4cccc(Cl)c4F)CC3)cc21 (stereo partly drawn) [I-224] | < 50 nM |

Reference: patent US11932624B2, “MDM2 degraders and uses thereof” (Kymera Therapeutics, Inc., priority 2020, dated 2024)
